From ChEMBL document CHEMBL4152182, “Recent acquisitions on oxyprenylated secondary metabolites as anti-inflammatory agents” (Eur J Med Chem, 2018)

Columns and labels:
[1] = system: Mus musculus; assay: Anti-inflammatory activity in mouse assessed as inhibition of croton oil-induced ear edema at 0.3 umol/cm2 administered topically relative to control; format: functional
[2] = system: Mus musculus; assay: Anti-inflammatory activity in mouse assessed as inhibition of croton oil-induced ear edema at 10 umol/cm2 administered topically relative to control; format: functional
[3] = Antitumor activity in mouse adenocarcinoma model at 100 ppm relative to control; format: functional
[4] = Antitumor activity in mouse adenocarcinoma model at 500 ppm relative to control; format: functional
[5] = system: Mus musculus; assay: Anti-parkinson's activity in intranigral LPS-induced Parkinson's disease-like C57BL/6 mouse model assessed as astrocytes activation at 25 mg/kg, sc once daily for 21 days starting from day 1 post LPS treatment by confocal fluorescence microscopic method relative to control; format: functional
[6] = system: Mus musculus; assay: Anti-parkinson's activity in intranigral LPS-induced Parkinson's disease-like C57BL/6 mouse model assessed as protection against dopaminergic neuronal loss in substantia nigra by measuring increase in TH-positive neuronal cells at 25 mg/kg, sc once daily for 21 days starting from day 1 post LPS treatment by immunohistochemistry relative to control; format: functional
[7] = system: Mus musculus; assay: Anti-parkinson's activity in intranigral LPS-induced Parkinson's disease-like C57BL/6 mouse model assessed as inhibition of microglial hyperactivation by measuring IBA1 positive cells at 25 mg/kg, sc once daily for 21 days starting from day 1 post LPS treatment by immunohistochemistry relative to control; format: functional; settings: C57BL/6, sc
[8] = system: Mus musculus; assay: Anti-parkinson's activity in intranigral LPS-induced Parkinson's disease-like C57BL/6 mouse model assessed as inhibition of microglial hyperactivation by measuring IBA1 positive cells at 19.3 mg/kg, sc once daily for 21 days starting from day 1 post LPS treatment by immunohistochemistry relative to control; format: functional; settings: C57BL/6, sc
[9] = system: Mus musculus; assay: Anti-parkinson's activity in intranigral LPS-induced Parkinson's disease-like C57BL/6 mouse model assessed as astrocytes activation at 19.3 mg/kg, sc once daily for 21 days starting from day 1 post LPS treatment by confocal fluorescence microscopic method relative to control; format: functional
[10] = system: Mus musculus; assay: Anti-parkinson's activity in intranigral LPS-induced Parkinson's disease-like C57BL/6 mouse model assessed as protection against dopaminergic neuronal loss in substantia nigra by measuring increase in TH-positive neuronal cells at 19.3 mg/kg, sc once daily for 21 days starting from day 1 post LPS treatment by immunohistochemistry relative to control; format: functional
[11] = system: RAW264.7; assay: Anti-inflammatory activity in mouse RAW264.7 cells assessed as inhibition of LPS-induced COX-2 gene expression relative to control; format: functional
[12] = system: Mus musculus; assay: Anti-inflammatory activity in mouse assessed as inhibition of carrageenan-induced paw edema at 10 mg/kg preincubated for 5 hrs followed by carrageenan challenge relative to control; format: functional
[13] = system: RAW264.7; assay: Anti-inflammatory activity in mouse RAW264.7 cells assessed as inhibition of LPS-induced iNOS gene expression relative to control; format: functional
[14] = system: Neutrophil; assay: Anti-inflammatory activity in human neutrophils assessed as inhibition of fMLP/CB-induced superoxide anion generation; format: functional, cell-based
[15] = system: RAW264.7; assay: Anti-inflammatory activity in mouse RAW264.7 cells assessed as inhibition of LPS-induced NO production; format: functional, cell-based

CC(C)=CCOc1ccc(CCCO)cc1
inhibition (INH) [1]: 28%
inhibition (INH) [2]: 68%

C=C(C)CCC/C(C)=C/COc1ccc(/C=C/C(=O)N[C@@H](CCCNC(=N)N[N+](=O)[O-])C(=O)O)cc1OC
Activity [3]: 84%
Activity [4]: 94%

CC(C)=CCC/C(C)=C/COc1ccc2ccc(=O)oc2c1 [AURAPTENE]
Activity [5]: 68.4%
fold change (FC) [6]: 2.2
inhibition in vivo at 25 mg/kg [7]: 39.1%

CC(C)=CCOC1=CC(=O)c2ccccc2C1=O
inhibition (INH) [1]: 14%

CC(C)=CCOc1ccc2ccc(=O)oc2c1 [7-PRENYLOXYCOUMARIN]
inhibition in vivo at 19.3 mg/kg [8]: 19.1%
Activity [9]: 65.3%
fold change (FC) [10]: 2.2

COc1cc(CO)cc(OC)c1OCC=C(C)C
inhibition (INH) [1]: 31%
inhibition (INH) [2]: 77%

CC(C)=CCOc1c2occc2cc2ccc(=O)oc12 [PENTOSALEN]
inhibition (INH) [11]: 66.7%
inhibition in vivo at 10 mg/kg [12]: 54.4%
inhibition (INH) [13]: 69.2%
IC50 [14]: 1.7 µM

CC(C)=CCOc1ccc(CCO)cc1 [ETROGOL]
inhibition (INH) [1]: 32%
inhibition (INH) [2]: 78%

COc1c(OC/C=C(\C)CCC=C(C)C)ccc2ccc(=O)oc12 [COLLININ]
IC50 [15]: 5.9 µM
